Patent EP0393104B1, “MEASUREMENT OF PGE 2 (PROSTAGLANDIN E 2) LEVELS IN PATIENTS WITH CHRONIC INFLAMMATORY BOWEL DISEASE” (priority 1987, dated 1989)
Values joined by “and” are separate entries in the source; they are usually repeats but may differ in a detail not shown here. Identical values can stand only once.

Legend:
[1] = tested on: inactive ulcerative colitis; assay: Double-blind maintenance treatment with SAZ or placebo after rise of PGE2: relapse/remission; assay type: in vivo, patients
Description: Patients fulfilling the following entry criteria were candidates for the study: (a) proven UC. […] Patients were considered in remission when symptom-free (i.e., stool frequency 2 x a day, without discharge of blood, pus, or mucus from the rectum), with normal sigmoidoscopic appearance, and with no significant inflammation on rectal biopsy.
(§1) Equilibrium in vivo dialysis of faeces as well as equilibrium in vivo dialysis of rectum were done in consenting patients fulfilling the entry criteria. Subsequently, SAZ treatment was stopped and the patients were observed free of medication. Evaluation of clinical disease activity, in addition to sigmoidoscopy with rectal biopsies for assessing endoscopic and histologic disease activity, were done at scheduled visits after two weeks, after two, six, and 12 months, and in-between, if indicated by recurrence of colitic symptoms. A relapse was defined as a recurrence of colitic symptoms accompanied by endoscopic signs of inflammation. If a relapse occurred the patient was withdrawn. At the scheduled visits also in vivo dialysis measurements were carried out. […]

PGE2 [2] = assay: Equilibrium in vivo dialysis of rectum with radioimmunoassay of PGE2 (enema trial); parameters: species or system patients; settings: median, enema groups irrespective of SAZ (+/-), SAZ line = no enema, with SAZ maintenance
Protocol: The study was carried out as a block-randomized, double-blind trial. Before entry, clinical disease activity was assessed, and equilibrium in vivo dialysis of rectum was performed before the assessment of endoscopic and histologic disease activity. […] Primary stratification was done for patients already on maintenance treatment with SAZ. At day 15 the equilibrium in vivo dialysis of rectum was repeated, and clinical, endoscopic, and histologic activities were reassessed. Patients in complete clinical and endoscopic remission discontinued treatment with enemas, whereas the remainder continued therapy for another 14 days. In all cases equilibrium in vivo dialysis of rectum and assessment of disease activity were repeated at day 29. Withdrawal criteria included intolerance to treatment or deterioration (severe disease, C3) requiring systemic glucocorticoids.
In vivo dialysis of rectum was performed after insertion of a 12-cm-long dialysis bag (volume 4 ml; Visking seamless cellulose tubing 8/32 filled with Rheomacrodex@; Pharmacia, Uppsala, Sweden) containing 10% dextran (mean mol wt 40,000) in saline into the emptied rectum. To obtain equilibrium with the fluid covering the surface of rectal mucosa, the dialysis bag was left for 4 h before its contents were emptied into a test tube, which was stored immediately at -20°C (rectal dialysate) for analysis within 2 wk.
Prostaglandin E2 was measured as previously described in detail (K. Bukhave, J. Rask-Madsen J, 'Prostaglandin E2 in jejunal fluids and its potential diagnostic value for selecting patients with indomethacin-sensitive diarrhoea', 1981 European Journal of Clinical Investigation, 11:191-7) by a radioimmunologic method validated by gas chromatography-mass spectrometry (K. Bukhave, K Green, J. Rask-Madsen, 'Comparison of radioimmunological determinations with gas chromatography mass spectrometry dosage', 1983 Biomedical Mass Spectrometry, 10:265-8). The method included purification by extraction with ethylacetate/cyclo- hexane (1:1) and chromatography on microcolumns of Sephadex LH-20 (Pharmacia AB, Sweden) before performing the radioimmunoassay itself on the eluate fraction containing PGE2.

PGE2 [3] = assay: Equilibrium in vivo dialysis of faeces with radioimmunoassay of PGE2 (SAZ withdrawal study); settings: individual patients randomized to SAZ (tablets 0.5 g; 2 tablets b.i.d.) after raised PGE2; first figure of the cell
Description: as §1
Equilibrium in vivo dialysis of faeces was carried out as previously described, by pooling the contents of five swallowed dialysis bags following their intestinal transit (faecal dialysate). These dialysates were analyzed for concentrations of PGE2 (faecal PGE2).
(§2) Prostaglandin E2 was measured as previously described by a radioimmunological method validated by gas chromatograghy mass spectrometry. […]

ulcerative colitis = settings: background statement; cited from earlier work
PGE2 [4] = assay: Equilibrium in vivo dialysis of rectum with radioimmunoassay of PGE2 (SAZ withdrawal study); parameters: species or system patients
Description: as §1
Equilibrium in vivo dialysis of rectum was performed after insertion of a 12-cm-long dialysis bag into the emptied rectum as described above. The bag was left for four hours when it was removed and its contents (rectal dialysate) were analyzed for concentrations of PGE2 (rectal PGE2).
as §2

SMILES: O=C(O)c1cc(/N=N/c2ccc(S(=O)(=O)Nc3ccccn3)cc2)ccc1O [SAZ, sulphasalazine]
- remission reinstated in relapsing patients by resuming SAZ alone ([1]; SAZ 2-3 g/day orally, 14 relapsing patients): seven cases
- relapse within the six-month treatment period ([1]; SAZ 2 g/day group n=6, placebo four of five, p<0.05, Fisher's exact test): none of the six patients
- Concentrations of PGE2 in rectal lumen (PGE2 [2]; clinical activity 0 (inactive)): 0.61(n=3) (0.47-2.2) ng/ml
- Concentrations of PGE2 in rectal lumen (PGE2 [2]; clinical activity 1 (mild)): 9.4(n=5) (0.35-36) ng/ml
- Concentrations of PGE2 in rectal lumen (PGE2 [2]; clinical activity 2-3 (moderate-severe)): 8.5(n=9) (0.32-52) ng/ml
- Concentrations of PGE2 in rectal lumen (PGE2 [2]; endoscopic activity 0 (inactive)): 0.61(n=3) (0.47-22) ng/ml
- Concentrations of PGE2 in rectal lumen (PGE2 [2]; endoscopic activity 1 (mild)): 3.2(n=3) (0.35-5.6) ng/ml
- Concentrations of PGE2 in rectal lumen (PGE2 [2]; endoscopic activity 2 (moderate)): 8.2(n=8) (0.32-36) ng/ml
- Concentrations of PGE2 in rectal lumen (PGE2 [2]; endoscopic activity 3 (severe)): 36(n=3) (8.9-52) ng/ml
- Fecal PGE2 levels 6 months after R (PGE2 [3]): 0.20 ng/ml and 0.38 ng/ml and 0.43 ng/ml and 0.14/ND ng/ml and 0.32 ng/ml and 0.22 ng/ml
- patients allergic to SAZ or in other ways intolerant of the drug (ulcerative colitis): 10-20%
- PGE2 concentrations (PGE2 [4]; SAZ group n=6, six months after randomisation): decreased toward control levels
- Rectal PGE2 levels 6 months after R (PGE2 [4]; individual patients randomized to SAZ (tablets 0.5 g; 2 tablets b.i.d.) after raised PGE2, second figure of the cell): 0.64 ng/mL and 0.59 ng/mL and 2.11 ng/mL and 0.30 ng/mL and 0.26 ng/mL
